The values that follow come from patent US10766882B2, “1,2-naphthoquinone based derivative and method of preparing the same” (YUNGJIN PHARM. CO., LTD., priority 2013, dated 2020).

Experiment [1] has as its target NQO1 protein (Homo sapiens, UniProt P15559). Put plainly: NQO1 activity measurement (cytochrome C reduction). The class given is biochemical. Particulars: 5 ng NQO1 protein, 200 μM NADH, 77 μM cytochrome C, 37° C., absorbance 550 nm for 10 minutes. The method, then: An enzyme reaction solution included 25 mM Tris/HCl (pH 7.4), 0.14% bovine serum albumin, 200 μM NADH, 77 μM cytochrome C, and 5 ng of NQO1 protein. Enzymatic reaction was initiated by adding NADH and performed at 37° C. In this regard, a reaction rate was measured by observing absorbance, which was increased due to reduction of cytochrome C, at 550 nm for 10 minutes and NQO1 activity was represented as an amount of reduced cytochrome C [nmol cytochrome C reduced/min/μg protein].
Extinction coefficient for cytochrome C:21.1 mmol/L/cm=21.1 μmol/ml/cm

Experiment [2] concerns Cells. Put plainly: Measurement of lactate change amount within cells. Format: cell-based. Particulars: PCA extract of cells, lactate measured from supernatant (Megazyme, K-LATE). The procedure: Cells were treated with 400 μl of 6% PCA, and then collected and extracted. Centrifugation (13,000 rpm, 10 min) was performed. A precipitate was dried using a Speed-Vac and then a weight of dried precipitate was measured. A supernatant was neutralized using 400 μl of 1 M KOH and a final volume thereof was adjusted to 1 ml using 0.33 M KH2PO4/K2HPO4, pH 7.5. Centrifugation (13,000 rpm, 10 min) was performed and the amount of lactate was measured from a supernatant (Megazyme, K-LATE).

Experiment [3] has as its system C57BL/6J Lep ob/ob mice. Put plainly: Weight loss effects in obese mice (ob/ob). The class given is in vivo. To be noted: Exp. Ex. 3-3, FIG. 3: 11 week-old ob/ob mice, 100 mg/kg oral, total of 6 days, vs 0.1% SLS controls. The procedure: 10 week-old C57BL/6J Lep ob/ob mice having genetic obesity characteristics available from ORIENTBIO were prepared. Two mice were raised in each polycarbonate breeding cage (200 W×260 L×130H (mm), Three-shine) in which temperature was 20 to 24° C., relative humidity was 35 to 65%, illuminance was 150 to 300 lux, night and day were 12 hours, and exhaust was performed at 10 to 15 air changes per hour. As a feed, low fat diet (11.9 kcal % fat, 5053, Labdiet) manufactured by ORIENTBIO was used. The feed was contained in a feeder and free intake was allowed. As drinking water, water, which was contained in a 250 mL polycarbonate based bottle, purified through a filter and a sterilizer was used and free intake was allowed.
The compound according to Example 1 synthesized in the present invention was orally administered to three C57BL/6J Lep ob/ob mice in amounts of 40 mg/kg, 80 mg/kg, and 120 mg/kg, respectively, once every day for two weeks. For administration, a disposable syringe fitted with a sonde for oral administration was used and 10 ml/kg of the compound was orally administered into the stomach. As controls, three C57BL/6J Lep ob/ob mice were administered 0.1% sodium lauryl sulfate (SLS) in an amount of 120 mg/kg in the same manner as described above. After administration, a time-dependent weight increase ratio, weight change, and intake amount were measured and results are illustrated in FIG. 1 below.
Weights of the experimental animals were measured immediately before administration of a test material and seven times a week from an administration initiation day to a test termination day. Increased total weights were calculated by subtracting weights measured on an experiment initiation day from weights measured one day before an experiment termination day. Food intake amounts were calculated by measuring feed supply amounts and remaining amounts twice a week from an initiation day of test material administration to a test termination day for each individual. […]
(§1) Experiments were performed under the same conditions as in Experimental Example 3-1 except that 15 week-old C57BL/6J Lep ob/ob mice having genetic obesity characteristics available from ORIENTBIO were prepared, the compounds according to Examples 5 and 6 were administered to three C57BL/6J Lep ob/ob mice in an amount of 150 mg/kg, 150 mg/kg of 0.1% SLS was administered to each of three C57BL/6J Lep ob/ob mice as controls, and experiments were performed for a total of one week. Weight increase ratios, weight change, and intake amounts depending on administration time were measured and results are illustrated in FIG. 5 below.
as §1, with “that 10” for “that 15”, “Examples 8, 9,” for “Examples 5”, “and 12” for “and 6”, “FIG. 6” for “FIG. 5”
Experiments were performed under the same conditions as in Experimental Example 3-1 except that 6 week-old C57BL/6J Lep ob/ob mice having genetic obesity characteristics available from ORIENTBIO were prepared, the compounds according to Examples 17, 18, 22, and 23 were administered to three C57BL/6J Lep ob/ob mice in an amount of 100 mg/kg, 100 mg/kg of 0.1% SLS was administered to each of three C57BL/6J Lep ob/ob mice as controls, and experiments were performed for a total of one week. Weight increase ratios, weight change, and intake amounts depending on administration time were measured and results are illustrated in FIG. 10 below. […]

Sequence of NQO1 protein (P15559 whole entry, species assumed): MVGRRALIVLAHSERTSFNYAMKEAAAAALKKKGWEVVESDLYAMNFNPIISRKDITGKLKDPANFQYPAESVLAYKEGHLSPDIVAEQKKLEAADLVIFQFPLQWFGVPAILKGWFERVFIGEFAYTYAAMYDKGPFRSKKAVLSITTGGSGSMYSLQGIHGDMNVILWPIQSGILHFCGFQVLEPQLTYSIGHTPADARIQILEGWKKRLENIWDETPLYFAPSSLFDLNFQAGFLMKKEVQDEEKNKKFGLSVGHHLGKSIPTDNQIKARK

Take `CC(C)C(=O)n1c(C(C)C)nc2c1C(=O)C(=O)c1ccccc1-2` [Example 28]: the “NQO1 activity (5 μM, [nmol cytochrome C reduced/min/μg protein])” value in experiment [1] is listed as 177.2 nmol cytochrome C reduced/min/μg protein. Also, the “Lactate change amount within cells (nmol/mg cell)” value (from here on “Lactate change amount within cells”) in experiment [2] was 6.8 nmol/mg cell.

Turning to `CC(C)(C)OC(=O)N(Cc1nc2c([nH]1)C(=O)C(=O)c1ccccc1-2)c1ccccc1` [Example 48], in experiment [1], the “NQO1 activity (5 μM, [nmol cytochrome C reduced/min/μg protein])” value is recorded as 59.8 nmol cytochrome C reduced/min/μg protein. Besides, in experiment [2], the “Lactate change amount within cells” value was 5.1 nmol/mg cell.

In the case of `O=C1C(=O)c2nccnc2-c2ccccc21` [Example 13], the “NQO1 activity (5 μM, [nmol cytochrome C reduced/min/μg protein])” value in experiment [1] is 291 nmol cytochrome C reduced/min/μg protein. In addition, in experiment [3], the intake amount entry was “significantly decreased” and the weight increase ratio result is “significantly decreased”. Take `CCn1c(C(C)C)nc2c1C(=O)C(=O)c1ccccc1-2` [Example 36]: in experiment [1], the “NQO1 activity (5 μM, [nmol cytochrome C reduced/min/μg protein])” value is on record as 164.6 nmol cytochrome C reduced/min/μg protein. In experiment [2], the “Lactate change amount within cells” value was found to be 7.8 nmol/mg cell. On to `COc1ccc(-c2nc3c([nH]2)C(=O)C(=O)c2ccccc2-3)cc1` [Example 10], for which, in experiment [1], the “NQO1 activity (5 μM, [nmol cytochrome C reduced/min/μg protein])” value was 103 nmol cytochrome C reduced/min/μg protein. The “Lactate change amount within cells” value in experiment [2] was determined as 9.9 nmol/mg cell. For `CCc1nc2c(n1C)-c1ccccc1C(=O)C2=O` [Example 39, 2-ethyl-1-methyl-1H-naphtho[2,1-d]imidazole-4,5-dione] the same measures were 104.7 nmol cytochrome C reduced/min/μg protein and 8.4 nmol/mg cell. For `CC(C)(C)c1nc2c(n1Cc1ccccc1)C(=O)C(=O)c1cccnc1-2` [Example 46, 3-benzyl-2-tert-butyl-3H-imidazo[4,5-h]quinoline-4,5-dione] the same measures were 160.1 nmol cytochrome C reduced/min/μg protein and 8.9 nmol/mg cell. Regarding `CCc1nc2c([nH]1)C(=O)C(=O)c1cc(N)ccc1-2` [Example 25], the “NQO1 activity (5 μM, [nmol cytochrome C reduced/min/μg protein])” value in experiment [1] is reported as 173.1 nmol cytochrome C reduced/min/μg protein. Further, the “Lactate change amount within cells” value in experiment [2] stood at 6.1 nmol/mg cell. For `CC(C)c1nc2c(n1Cc1ccccc1)C(=O)C(=O)c1ccccc1-2` [Example 32] the same measures were 124.2 nmol cytochrome C reduced/min/μg protein and 5.8 nmol/mg cell. For `CC(C)(C)c1nc2c([nH]1)C(=O)C(=O)c1ncccc1-2` [Example 7, 2-tert-butyl-3H-imidazo[4,5-f]quinoline-4,5-dione] the same measures were 55 nmol cytochrome C reduced/min/μg protein and 11.4 nmol/mg cell. For `CCc1nc2c(n1C)-c1ccc(F)cc1C(=O)C2=O` [Example 42, 2-ethyl-7-fluoro-1-methyl-1H-naphtho[2,1-d]imidazole-4,5-dione] the same measures were 57.0 nmol cytochrome C reduced/min/μg protein and 8.9 nmol/mg cell. On to `Cn1c(C(C)(C)C)nc2c1-c1cccnc1C(=O)C2=O` [Example 14], for which the “NQO1 activity (5 μM, [nmol cytochrome C reduced/min/μg protein])” value in experiment [1] is on record as 179 nmol cytochrome C reduced/min/μg protein. Besides, the “Lactate change amount within cells” value in experiment [2] is 12.4 nmol/mg cell. For `O=C1C(=O)c2[nH]c(Cc3ccccc3)nc2-c2ccccc21` [Example 11] the same measures were 178 nmol cytochrome C reduced/min/μg protein and 7.2 nmol/mg cell. The like results for `CC(C)c1nc2c(n1Cc1cccc(Cl)c1)C(=O)C(=O)c1ccccc1-2` [Example 34] were, in that order, 153.5 nmol cytochrome C reduced/min/μg protein and 4.9 nmol/mg cell. For the molecule `CC(C)c1nc2c(n1C(=O)OC(C)(C)C)C(=O)C(=O)c1ccccc1-2` [Example 29], in experiment [1], the “NQO1 activity (5 μM, [nmol cytochrome C reduced/min/μg protein])” value was 215.6 nmol cytochrome C reduced/min/μg protein. For the same molecule, the “Lactate change amount within cells” value in experiment [2] turned out to be 8.1 nmol/mg cell.

Take `O=C1C(=O)c2[nH]c(CNc3ccccc3)nc2-c2ccccc21` [Example 49]: the “NQO1 activity (5 μM, [nmol cytochrome C reduced/min/μg protein])” value in experiment [1] is recorded as 128.4 nmol cytochrome C reduced/min/μg protein. In addition, in experiment [2], the “Lactate change amount within cells” value worked out at 5.2 nmol/mg cell. The like results for `CC(C)c1nc2c(n1C(=O)OCc1ccccc1)C(=O)C(=O)c1ccccc1-2` [Example 31] were, in that order, 127.1 nmol cytochrome C reduced/min/μg protein and 5.1 nmol/mg cell. For `CCc1nc2c([nH]1)C(=O)C(=O)c1cc(NCc3ccc(F)cc3)ccc1-2` [Example 47], the “NQO1 activity (5 μM, [nmol cytochrome C reduced/min/μg protein])” value in experiment [1] was 41.0 nmol cytochrome C reduced/min/μg protein. In experiment [2], the “Lactate change amount within cells” value is 5.9 nmol/mg cell.

On to `O=C1C(=O)c2[nH]c(COc3ccccc3)nc2-c2ccccc21` [Example 78], for which the “NQO1 activity (5 μM, [nmol cytochrome C reduced/min/μg protein])” value in experiment [1] is 81.7 nmol cytochrome C reduced/min/μg protein. The “Lactate change amount within cells” value in experiment [2] was determined as 8.0 nmol/mg cell.

For the molecule `CCc1nc2c([nH]1)C(=O)C(=O)c1cc([N+](=O)[O-])ccc1-2` [Example 24], the “NQO1 activity (5 μM, [nmol cytochrome C reduced/min/μg protein])” value in experiment [1] is reported as 208.2 nmol cytochrome C reduced/min/μg protein. In experiment [2], the “Lactate change amount within cells” value worked out at 4.3 nmol/mg cell. The like results for `CCOC(=O)n1c(C(C)C)nc2c1C(=O)C(=O)c1ccccc1-2` [Example 37] were, in that order, 215.7 nmol cytochrome C reduced/min/μg protein and 10.3 nmol/mg cell. Turning to `CN(Cc1nc2c([nH]1)C(=O)C(=O)c1ccccc1-2)c1ccccc1` [Example 51, 2-((methyl (phenyl)amino)methyl)-3H-naphtho[2,1-d]imidazole-4,5-dione], the “NQO1 activity (5 μM, [nmol cytochrome C reduced/min/μg protein])” value in experiment [1] was 140.8 nmol cytochrome C reduced/min/μg protein. As for `CC(F)(F)c1nc2c([nH]1)C(=O)C(=O)c1ccccc1-2` [Example 82], in experiment [1], the “NQO1 activity (5 μM, [nmol cytochrome C reduced/min/μg protein])” value is reported as 70.2 nmol cytochrome C reduced/min/μg protein. `Cn1c(COc2ccc(F)cc2)nc2c1C(=O)C(=O)c1ccccc1-2` [Example 80]: in experiment [1], the “NQO1 activity (5 μM, [nmol cytochrome C reduced/min/μg protein])” value is given as 162.6 nmol cytochrome C reduced/min/μg protein.
